The values that follow come from publication PMC12238850, “Molecular determinants for recognition of serotonylated chromatin” (Nucleic Acids Research, 2025).

Residue numbers refer to the chain shown, from its start. Like-named read-outs stand apart in the source and are kept apart here.

Common to all, as to format: binding
In experiment [1] the target is T1, TAF3 W894F (GST-tagged PHD) (Mus musculus, UniProt Q5HZG4, W894F).
T1 construct: Mus musculus Taf3-PHD domain (residues 857–924); made in house; host or cells: E. coli BL21(DE3)
T1 sequence (Q5HZG4 857-924 W894F): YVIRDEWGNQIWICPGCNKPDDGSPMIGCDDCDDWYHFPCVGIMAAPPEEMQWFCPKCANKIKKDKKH
The experiment can be described thus: ITC of GST-tagged Taf3-PHD W894F. The text has this: (§1) The coding sequences of Mus musculus Taf3-PHD domain (residues 857–924) and Homosapiens PHF2 (1–66), PHF8 (37–102), and BPTF(2) (2865–2921) were cloned into the pGEX2T-derived vector, pRP265NB, for bacterial expression of GST-tagged proteins. Note that the PHD fingers of M. musculus Taf3 and H. sapiens TAF3 differ in a single amino acid. A901 in mouse corresponds to T899 in human. Here, amino acid numbering corresponds to mouse Taf3 isoform 1 with UniProt ID: Q5HZG4, accessible at https://www.uniprot.org/uniprotkb/Q5HZG4/entry. Single or double mutations were introduced by mutagenesis polymerase chain reaction and validated by Sanger sequencing. A single colony of freshly transformed BL21(DE3) Escherichia coli bacteria with the corresponding construct was grown in Luria broth (LB) medium supplemented with 50 μg/ml ampicillin until an OD600 of 0.7. […]
(§2) ITC experiments were performed at 20°C with a MicroCal VP-ITC microcalorimeter (Malvern) by sequential injection of 10 μl at 300 μM histone peptide during 20 s into the sample cell containing 30 or 15 μM of GST-Taf3 (wild type or mutant) or GST-BPTF, GST-PHF2, and GST-PHF8 PHDs in ITC buffer (100 mM NaCl, 20 mM Tris–HCl, pH 7.5). […] ITC data were subsequently analysed and fitted with the one-site binding model in the MicroCal ITC Origin Analysis software 7.0 (Table 1, Figs 3B and 5A, Supplementary Table S3, and Supplementary Fig. S10). […]

Experiment [2] has as its target T2, TAF3 A902L (GST-tagged PHD) (Mus musculus, UniProt Q5HZG4, A902L).
T2 construct: Mus musculus Taf3-PHD domain (residues 857–924); made in house; host or cells: E. coli BL21(DE3)
T2 sequence (Q5HZG4 857-924 A902L): T1 sequence (Q5HZG4 857-924 W894F) with F38W, A46L
The experiment is described as follows: ITC of GST-tagged Taf3-PHD A902L.
From the text: as §1, §2

The target of experiment [3] is T3, BPTF(2) PHD (2865–2921, GST-tagged) (Homo sapiens, UniProt Q12830).
T3 construct: BPTF(2) (2865–2921); made in house; host or cells: E. coli BL21(DE3)
The experiment is described as follows: ITC of GST-tagged BPTF(2) PHD.
From the text: as §1, §2

Experiment [4] has as its target T4, TAF3 W894I (GST-tagged PHD) (Mus musculus, UniProt Q5HZG4, W894I).
T4 construct: Mus musculus Taf3-PHD domain (residues 857–924); made in house; host or cells: E. coli BL21(DE3)
T4 sequence (Q5HZG4 857-924 W894I): T1 sequence (Q5HZG4 857-924 W894F) with F38I
The experiment can be described thus: ITC of GST-tagged Taf3-PHD W894I.
From the text: as §1, §2

Experiment [5] addresses T5, TAF3 W894L (GST-tagged PHD) (Mus musculus, UniProt Q5HZG4, W894L).
T5 construct: Mus musculus Taf3-PHD domain (residues 857–924); made in house; host or cells: E. coli BL21(DE3)
T5 sequence (Q5HZG4 857-924 W894L): T1 sequence (Q5HZG4 857-924 W894F) with F38L
The experiment can be described thus: ITC of GST-tagged Taf3-PHD W894L.
From the text: as §1, §2

Experiment [6] concerns the target T6, TAF3 WT (GST-tagged Taf3-PHD, residues 857–924) (Mus musculus, UniProt Q5HZG4).
T6 construct: Mus musculus Taf3-PHD domain (residues 857–924); made in house; host or cells: E. coli BL21(DE3)
T6 sequence (Q5HZG4 857-924): T1 sequence (Q5HZG4 857-924 W894F) with F38W
The experiment can be described thus: ITC of GST-tagged Taf3-PHD wild type.
From the text: as §1, §2

Experiment [7] addresses T7, TAF3 P881F (GST-tagged PHD) (Mus musculus, UniProt Q5HZG4, P881F).
T7 construct: Mus musculus Taf3-PHD domain (residues 857–924); made in house; host or cells: E. coli BL21(DE3)
T7 sequence (Q5HZG4 857-924 P881F): T1 sequence (Q5HZG4 857-924 W894F) with P25F, F38W
The experiment is described as follows: ITC of GST-tagged Taf3-PHD P881F.
From the text: as §1, §2

For experiment [8], the target named is T8, PHF8 PHD (37–102, GST-tagged) (Homo sapiens, UniProt Q9UPP1).
T8 construct: PHF8 (37–102); made in house; host or cells: E. coli BL21(DE3)
T8 sequence (Q9UPP1 37-102): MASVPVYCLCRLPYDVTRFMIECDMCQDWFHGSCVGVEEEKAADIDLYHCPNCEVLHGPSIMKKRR
The experiment is described as follows: ITC of GST-tagged PHF8 PHD.
From the text: as §1, §2

Where [9] appears, read: ITC, 20°C, 100 mM NaCl, 20 mM Tris–HCl, pH 7.5, one-site model, ± = standard error of fit, read-out: K D.

Turning to `C[C@H](N)C(=O)N[C@@H](CCCNC(=N)N)C(=O)N[C@H](C(=O)N[C@@H](CCCC[N+](C)(C)C)C(=O)N[C@@H](CCC(=O)NCCc1c[nH]c2ccc(O)cc12)C(=O)N[C@H](C(=O)N[C@@H](C)C(=O)N[C@@H](CCCNC(=N)N)C(=O)N[C@@H](CCCCN)C(=O)N[C@@H](CO)C(=O)N[C@H](C(=O)NCC(N)=O)[C@@H](C)O)[C@@H](C)O)[C@@H](C)O` [H3K4me3Q5ser], the Kd came out at 102 ± 1 nM in experiment [1]; 51 ± 3 nM in experiment [2]; 1240 ± 50 nM in experiment [3]; 106 ± 8 nM in experiment [4]; 324 ± 18 nM in experiment [5]; 98 ± 8 nM in experiment [6]. For the same compound, the results for the Kd in experiment [7] and in experiment [8] were 124 ± 7 nM and 275 ± 19 nM, respectively.
For the compound `C[C@H](N)C(=O)N[C@@H](CCCNC(=N)N)C(=O)N[C@H](C(=O)N[C@@H](CCCC[N+](C)(C)C)C(=O)N[C@@H](CCC(N)=O)C(=O)N[C@H](C(=O)N[C@@H](C)C(=O)N[C@@H](CCCNC(=N)N)C(=O)N[C@@H](CCCCN)C(=O)N[C@@H](CO)C(=O)N[C@H](C(=O)NCC(N)=O)[C@@H](C)O)[C@@H](C)O)[C@@H](C)O` [H3K4me3], the Kd came out at 126 ± 12 nM in experiment [1] (setting [9]); 166 ± 17 nM in experiment [2] (setting [9]); 1300 ± 49 nM in experiment [3] (setting [9]); 279 ± 17 nM in experiment [4] (setting [9]); 595 ± 35 nM in experiment [5] (setting [9]); 260 ± 16 nM in experiment [6] (ITC, 20°C, 100 mM NaCl, 20 mM Tris–HCl, pH 7.5, 300 μM peptide into 30 or 15 μM GST-PHD, one-site model, ± = standard error of fit, representative experiment, read-out: K D). Further, the figures for the Kd in experiment [7] (setting [9]) and in experiment [8] (setting [9]) were 130 ± 4 nM and 418 ± 20 nM, respectively.
